Among the data in US11033506B2, “External skin preparation comprising a core-shell structure” (SEKISUI CHEMICAL CO., LTD., priority 2017, dated 2021) are octanol/water partition coefficient and logD values, retold here.

A short description of this data set: Octanol/water partition coefficient. Type of data set: physicochemical. To be noted: Log10 (octanol phase/aqueous phase), aqueous buffer solution of pH 7. The text has this: Specifically, the octanol/water partition coefficient can be determined by calculation using an equation: Octanol/water partition coefficient=Log10 (concentration in an octanol phase/concentration in an aqueous phase).

Take `O=C(O)c1cc(/N=N/c2ccc(S(=O)(=O)Nc3ccccn3)cc2)ccc1O` [sulfasalazine]: the octanol/water partition coefficient turned out to be 2.3.

On to `O=C1CCc2ccc(OCCCCN3CCN(c4cccc(Cl)c4Cl)CC3)cc2N1` [aripiprazole], for which the octanol/water partition coefficient worked out at 4.5. The molecule also returned a logD (octanol/aqueous buffer solution (pH 7)) of 4.5.
